This is an account of results in patent US8324194B2, “Combination therapy for the treatment of cancer” (Incyte Corporation, priority 2005, dated 2012).

For assay [1], the system named is MCF-7 human breast cancer xenografts. Briefly: Growth of subcutaneous MCF-7 breast cancer xenograft in mice. Conditions: MCF-7 xenograft; for inhibited tumor cell growth over the control group: nu/nu mice, fulvestrant 5 mg SC once per week for four weeks, mean tumor volume vs control group (a). Type of assay: in vivo. Here is the method:
Human breast cancer cell line MCF-7 was obtained from American Type Tissue Culture Collection (ATCC, Manassas, Va.). Cells were routinely maintained in media recommended by the ATCC with slight modifications. Cells were kept at 37° C. in a humidified incubator supplied with 5% CO2. MCF-7 cells were kept in Eagle's minimal essential medium (ATCC) supplemented with 10% FBS and 0.01 mg/ml bovine insulin.
Animal studies were performed under Animal Welfare Regulation Guidelines in a facility accredited by the Association for the Assessment and Accreditation of Laboratory Animal Care (AAALAC). Balb/c or CD-1 nu/nu mice (Charles River, Wilmington, Mass.) were injected subcutaneously with logarithmically growing cells suspended in either serum free culture media, or a 1:1 mixture media and Matrigel™ (BD Biosciences). The tumor models required implantation (on the same day or one day prior to cell inoculation) of estradiol pellets (17-β estradiol, 0.72 mg/pellet, 60 day release; Innovative Research of American, Sarasota, Fla.). The time in days after injection of the tumor cells into the mice was measured as “days post-inoculation”.
Subcutaneous implantation of osmotic pumps (obtained from Alzet, Cupertino, Calif.) was performed under isofluorane anesthesia following manufacturer's protocol. Subcutaneous pumps (hereinafter “SC pumps”) were used to deliver a solution of Compound 1, or its inert solvent. Fulvestrant, or its inert solvent, was delivered by subcutaneous injection on the dorsal flanks of the animals. Treatment was usually initiated when mean tumor volumes were approximately 150 mm^3 at the beginning of treatment. Ten test animals were included in each treatment group, (a)-(d).
Tumor size was measured and used to calculate tumor volume for a period of time following the injection of the tumor cells into the mice. Tumor size was measured by using a caliper to measure the length (1) and width (w) of tumors to calculate an approximate volume ((l×w^2)/2). These tumor size measurements and tumor volume calculations were recorded relative to the number of days post-inoculation of the mice with the tumor cells. The frequency of the tumor size measurements varied depending on how quickly the tumors grew in size, with more frequent measurements being taken when the tumors grew quickly. Mean tumor volume was calculated based on the tumor volumes for the ten test animals in each treatment group.
Treatment group (a) was the control group of test animals. […] Tumor size was measured for each test animal as described above and recorded as a function of the number of days post-inoculation of the mice with the MCF-7 breast cancer cells. Mean tumor volume was then calculated for treatment group (a) and plotted against the number of days post-inoculation as shown in FIG. 1. […]

Assay [2] concerns BT-474 human breast cancer xenografts. Briefly: Growth of subcutaneous BT-474 breast cancer xenograft in mice. Type of assay: in vivo. The settings on record: BT-474 xenograft; for inhibited tumor cell growth over the control group: nu/nu mice, Compound 1 60 mg/kg/day SC pump for 14 days, fulvestrant 5 mg SC once per week for four weeks, mean tumor volume vs control group (a); for tumor growth delay (TGD, T-C) to 500 cubic mm by linear regression analysis of tumor growth rate: Compound 1 60 mg/kg/day for 14 days, fulvestrant 5 mg weekly x4, projected time. As to the method:
Human breast cancer cell line BT-474 was obtained from American Type Tissue Culture Collection (ATCC, Manassas, Va.). Cells were routinely maintained in media recommended by the ATCC with slight modifications. Cells were kept at 37° C. in a humidified incubator supplied with 5% CO2. BT-474 cells were grown in RPMI 1640 (Invitrogen) supplemented with 10% fetal bovine serum (FBS), 0.01 mg/ml bovine insulin, 10 mM HEPES and 0.1 mM non-essential amino acids.
Animal studies were performed under Animal Welfare Regulation Guidelines in a facility accredited by the Association for the Assessment and Accreditation of Laboratory Animal Care (AAALAC). Balb/c or CD-1 nu/nu mice (Charles River, Wilmington, Mass.) were injected subcutaneously with logarithmically growing cells suspended in either serum free culture media, or a 1:1 mixture media and Matrigel™ (BD Biosciences). The tumor models required implantation (on the same day or one day prior to cell inoculation) of estradiol pellets (17-βestradiol, 0.72 mg/pellet, 60 day release; Innovative Research of American, Sarasota, Fla.). The time in days after injection of the tumor cells into the mice was measured as “days post-inoculation”.
Subcutaneous implantation of osmotic pumps (obtained from Alzet, Cupertino, Calif.) was performed under isofluorane anesthesia following manufacturer's protocol. Subcutaneous pumps were used to deliver a solution of Compound 1, or its inert solvent. Fulvestrant, or its inert solvent, was delivered by subcutaneous injection on the dorsal flanks of the animals. […] Treatment was usually initiated when mean tumor volumes were approximately 150 mm^3 at the beginning of treatment. Ten test animals were included in each Treatment group, (a)-(d).
Tumor size was measured and used to calculate tumor volume for a period of time following the injection of the tumor cells into the mice. Tumor size was measured by using a caliper to measure the length (l) and width (w) of tumors to calculate an approximate volume ((l×w^2)/2). These tumor size measurements and tumor volume calculations were recorded relative to the number of days post-inoculation of the mice with the tumor cells. […] Mean tumor volume was calculated based on the tumor volumes for the ten test animals in each treatment group.
Treatment group (a) was the control group of test animals. […] Tumor size was measured for each test animal as described above and recorded as a function of the number of days post-inoculation of the mice with the BT-474 breast cancer cells. Mean tumor volume was then calculated for treatment group (a) and plotted against the number of days post-inoculation as shown in FIG. 2. […]

The mark [3] stands for this setting: Compound 1 60 mg/kg/day SC pump for 14 days.

In the case of `C[C@]12CC[C@@H]3c4ccc(O)cc4C[C@@H](CCCCCCCCC[S+]([O-])CCCC(F)(F)C(F)(F)F)[C@H]3[C@@H]1CC[C@@H]2O` (some centres unmarked) [fulvestrant], the results for the “inhibited tumor cell growth over the control group” value in assay [1] (setting [3]) and in assay [2] were 52% and 46%, respectively. The “calculated tumor growth delay (TGD, T-C) to 1000 cubic mm by linear regression analysis of tumor growth curves” value in assay [1] (fulvestrant 5 mg SC weekly x4, alone or with Compound 1 60 mg/kg/day for 14 days, projected time) is 63 days. The “tumor growth delay (TGD, T-C) to 500 cubic mm by linear regression analysis of tumor growth rate” value in assay [2] was found to be 54 days.
`COC(=O)N1CC2(CC2)C[C@H](C(=O)NO)[C@H]1C(=O)N1CCN(c2ccccc2)CC1` [Compound 1, methyl (6S,7S)-7-[(hydroxyamino)carbonyl]-6-[(4-phenylpiperazin-1-yl)carbonyl]-5-azaspiro[2.5]octane-5-carboxylate]: in assay [1] (setting [3]), the “inhibited tumor cell growth over the control group” value was determined as 46% and the “tumor growth delay (TGD, T-C) to 1000 cubic mm, real, not calculated” value is 32 days. For the same compound, in assay [2], the “inhibited tumor cell growth over the control group” value was 33% and the “tumor growth delay (TGD, T-C) to 500 cubic mm by linear regression analysis of tumor growth rate” value worked out at 19 days.
